# In patent US9758492B2, “IDO inhibitors” (Bristol-Myers Squibb Company, priority 2013, dated 2017):
# Target: IDO (Homo sapiens, UniProt P14902)
# Experiment: LLE_IDO_ABS_DR (IDO assay)
# Chain of IDO (P14902 whole entry): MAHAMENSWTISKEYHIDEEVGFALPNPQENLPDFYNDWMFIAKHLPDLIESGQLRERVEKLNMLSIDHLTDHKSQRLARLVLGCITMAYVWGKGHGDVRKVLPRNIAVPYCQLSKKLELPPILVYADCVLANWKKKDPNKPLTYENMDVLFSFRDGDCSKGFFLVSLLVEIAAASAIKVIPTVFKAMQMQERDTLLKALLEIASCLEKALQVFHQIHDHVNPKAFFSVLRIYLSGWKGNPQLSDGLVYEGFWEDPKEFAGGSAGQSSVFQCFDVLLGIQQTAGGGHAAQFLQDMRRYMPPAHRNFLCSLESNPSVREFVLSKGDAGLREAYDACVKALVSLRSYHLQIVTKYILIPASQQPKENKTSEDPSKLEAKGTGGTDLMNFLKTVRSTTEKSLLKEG
row,Structure (SMILES),IC50 [nM]
1,"CC(C)CN(CC(C)C)c1ccc(-c2ccccc2-c2nnn[nH]2)cc1NC(=O)Nc1cccc(F)c1O [Example 275, 1-(4-(diisobutylamino)-2′-(1H-tetrazol-5-yl)-[1,1′-biphenyl]-3-yl)-3-(3-fluoro-2-hydroxyphenyl)urea]",500
2,"Cc1ccc(NC(=O)Nc2cc(-c3cc(F)ccc3C(=O)O)ccc2N(CCC(C)C(F)(F)F)C2CCCCC2)cc1 (centres unmarked) [Example 189, 4′-(cyclohexyl(4,4,4-trifluoro-3-methylbutyl)amino)-5-fluoro-3′-(3-(p-tolyl)ureido)-[1,1′-biphenyl]-2-carboxylic acid]",480
3,"Cc1ccc(NC(=O)Nc2cc(-c3ccccc3C(=O)O)ccc2N(CC(C)C)C2CCCCC2)cc1 [Example 119, 4′-(cyclohexyl (isobutyl)amino)-3′-(3-p-tolylureido)biphenyl-2-carboxylic acid]",5.19
4,"Cc1ccc(NC(=O)Nc2cc(-c3sccc3C(=O)O)ccc2N(CCC2CC2)CC(C)C)cc1 [Example 131, 2-(4-((2-cyclopropylethyl) (isobutyl)amino)-3-(3-p-tolylureido)phenyl) thiophene-3-carboxylic acid]",50
5,"Cc1ccc(NC(=O)Nc2cc(-c3ccccc3C(=O)O)ccc2N(CC(C)C)C2CCC2)cc1 [Example 183, 4′-(cyclobutyl(isobutyl)amino)-3′-(3-(p-tolyl)ureido)-[1,1′-biphenyl]-2-carboxylic acid]",20
6,"CCN(c1ccc(-c2ccccc2C(=O)O)cc1NC(=O)Nc1ccc(C)cc1)C1CCCC1 [Example 76, 4′-(cyclopentyl(ethyl)amino)-3′-(3-p-tolylureido)biphenyl-2-carboxylic acid]",20
7,"CC(C)CN(c1ccc(-c2ccccc2-c2nnn[nH]2)cc1NC(=O)Nc1ccccc1F)C(C)C [Example 153, 1-(2-fluorophenyl)-3-(4-(isobutyl (isopropyl)amino)-2′-(1H-tetrazol-5-yl)biphenyl-3-yl)urea]",5.16
8,"CCCN(Cc1ccccc1)c1ccc(-c2ccccc2-c2nnn[nH]2)cc1NC(=O)Nc1ccc(C)cc1 [Example 185, 1-(4-(benzyl(propyl)amino)-2′-(1H-tetrazol-5-yl)-[1,1′-biphenyl]-3-yl)-3-(p-tolyl)urea]",2.63
9,"CC(C)CN(CC(C)C)c1ccc(-c2ccccc2-c2nn[nH]n2)cc1NC(=O)Nc1c(F)cccc1F [Example 283, 1-(2,6-difluorophenyl)-3-(4-(diisobutylamino)-2′-(2H-tetrazol-5-yl)-[1,1′-biphenyl]-3-yl)urea]",10
10,"Cc1ccc(NC(=O)Nc2cc(-c3cscc3C(=O)O)ccc2N(CC(C)C)CC(C)C)cc1 [Example 35, 4-(4-(Diisobutylamino)-3-(3-p-tolylureido)phenyl)thiophene-3-carboxylic acid]",10
11,"O=C(Nc1ccc(C2CC2)cc1)Nc1cc(-c2ccccc2-c2nnn[nH]2)ccc1N1CCC(F)(F)C1 [Example 347, 1-(4-cyclopropylphenyl)-3-(4-(3,3-difluoropyrrolidin-1-yl)-2′-(1H-tetrazol-5-yl)-[1,1′-biphenyl]-3-yl)urea]",5260
12,O=C(Nc1ccccc1F)Nc1cc(-c2cc(F)ccc2C(=O)O)ccc1N(Cc1ccc(Cl)cc1)C1CCCCC1 [Example 470],190
13,"CCN(c1ccc(-c2ccc(OC)c(C(=O)O)c2)cc1NC(=O)Nc1ccc(C)cc1)C1CCCC1 [Example 77, 4′-(cyclopentyl(ethyl)amino)-4-methoxy-3′-(3-p-tolylureido) biphenyl-3-carboxylic acid]",3260
14,"Cc1ccc(NC(=O)Nc2cc(-c3ccccc3C(=O)O)ccc2N(CCC2CC2)CC(C)C)cc1 [Example 132, 4′-((2-cyclopropylethyl) (isobutyl)amino)-3′-(3-p-tolylureido) biphenyl-2-carboxylic acid]",50
15,"Cc1ccc(NC(=O)Nc2cc(-c3ccccc3-c3nnn[nH]3)ccc2N(CC(C)C)C2CCC2)cc1 [Example 184, 1-(4-(cyclobutyl(isobutyl)amino)-2′-(1H-tetrazol-5-yl)-[1,1′-biphenyl]-3-yl)-3-(p-tolyl)urea]",10
16,"O=C(Nc1ccc(C(F)(F)F)cc1F)Nc1cc(-c2ccccc2-c2nnn[nH]2)ccc1N1CCCc2ccccc21 [Example 364, 1-(4-(3,4-Dihydroquinolin-1(2H)-yl)-2′-(1H-tetrazol-5-yl)-[1,1′-biphenyl]-3-yl)-3-(2-fluoro-4-(trifluoromethyl)phenyl)urea]",4670
17,"Cc1ccc(NC(=O)Nc2cc(-c3ccccc3C(=O)O)ccc2N(CCC(C)C(F)(F)F)C2CCCCC2)cc1 (centres unmarked) [Example 188, 4′-(cyclohexyl(4,4,4-trifluoro-3-methylbutyl)amino)-3′-(3-(p-tolyl)ureido)-[1,1′-biphenyl]-2-carboxylic acid]",290
18,Cc1ccc(NC(=O)Nc2cc(-c3ccccc3-c3nnn[nH]3)ccc2N(CC(C)C)CC2CC(F)(F)C2)cc1 [Example 381],110
19,CC1CC(C)CN(c2ccc(-c3ccccc3-c3nnn[nH]3)cc2NC(=O)Nc2ccccc2F)C1 (centres unmarked) [Example 237],1290
20,"CC(C)CN(c1ccc(-c2cc(F)ccc2C(=O)O)cc1NC(=O)Nc1ccccc1F)C(C)C [Example 155, 5-fluoro-3′-(3-(2-fluorophenyl)ureido)-4′-(isobutyl(isopropyl)amino)biphenyl-2-carboxylic acid]",40
21,"CC(C)CN(CC(C)C)c1ccc(-c2ccccc2-c2nnn[nH]2)cc1NC(=O)Nc1ncccn1 [Example 239, 1-(4-(Diisobutylamino)-2′-(1H-tetrazol-5-yl)-[1,1′-biphenyl]-3-yl)-3-(pyrimidin-2-yl)urea]",3860
22,"C#CCN(CC(C)C)c1ccc(-c2ccccc2-c2nnn[nH]2)cc1NC(=O)Nc1ccc(C)cc1 [Example 24, 1-(4-(Isobutyl(prop-2-yn-1-yl)amino)-2′-(1H-tetrazol-5-yl)-[1,1′-biphenyl]-3-yl)-3-(p-tolyl)urea]",10
23,"CC(C)CN(CCC1CC1)c1ccc(-c2sccc2C(=O)O)cc1NC(=O)Nc1ccccc1F [Example 136, 2-(4-((2-cyclopropylethyl) (isobutyl)amino)-3-(3-(2-fluorophenyl)ureido)phenyl)thiophene-3-carboxylic acid]",70
24,"CC(C)CN(c1cc(F)c(-c2cc(F)ccc2C(=O)O)cc1NC(=O)Nc1ccccc1F)C1CCCCC1 [Example 229, 4′-(cyclohexyl(isobutyl)ami-no)-2′,5-difluoro-5′-(3-(2-fluorophenyl)ureido) biphenyl-2-carboxylic acid]",2.56

# Further compounds by falling IC50, results first:
row,IC50 [nM],Structure (SMILES)
1,4740,Cc1ccc(NC(=O)Nc2cc(-c3ccccc3-c3nnn[nH]3)ccc2N(CCC(C)(C)O)Cc2ccc(Cl)cc2)cc1 [Example 375]
2,4310,"COc1cc(NC(=O)Nc2cc(-c3ccccc3-c3nnn[nH]3)ccc2N(CC(C)C)CC(C)C)ccc1C#N [Example 261, 1-(4-cyano-3-methoxyphenyl)-3-(4-(diisobutylamino)-2′-(1H-tetrazol-5-yl)-[1,1′-biphenyl]-3-yl)urea]"
3,1940,"Cc1cc(NC(=O)Nc2cc(-c3ccccc3-c3nnn[nH]3)ccc2N2CCC(c3ccccc3)C2)on1 (racemic) [Example 372, (±)-1-(3-Methylisoxazol-5-yl)-3-(4-(3-phenylpyrrolidin-1-yl)-2′-(1H-tetrazol-5-yl)-[1,1′-biphenyl]-3-yl)urea]"
4,1080,"O=C(Nc1cc(-c2ccccc2-c2nnn[nH]2)ccc1N(CCC(F)(F)F)Cc1ccc(Cl)cc1Cl)Nc1ccccc1C(F)(F)F [Example 335, 1-(4-((2,4-dichlorobenzyl)(3,3,3-trifluoropropyl)amino)-2′-(1H-tetrazol-5-yl)-[1,1′-biphenyl]-3-yl)-3-(2-(trifluoromethyl)phenyl)urea]"
5,1010,"CC(C)CN(CC(C)C)c1ccc(-c2ccccc2-c2nnn[nH]2)cc1NC(=O)Nc1ccc(F)c(C(F)(F)F)c1 [Example 271, 1-(4-(diisobutylamino)-2′-(1H-tetrazol-5-yl)-[1,1′-biphenyl]-3-yl)-3-(4-fluoro-3-(trifluoromethyl)phenyl) urea]"
6,240,"CC(C)CN(c1ccc(-c2ccccc2-c2nnn[nH]2)cc1NC(=O)Nc1ccccc1C(F)(F)F)C1CCCCC1 [Example 161, 1-(4-(cyclohexyl(isobutyl)amino)-2′-(1H-tetrazol-5-yl)biphenyl-3-yl)-3-(2-(trifluoromethyl)phenyl)urea]"
7,90,"Cc1ccc(NC(=O)Nc2cc(-c3cc(F)ccc3C(=O)O)ccc2N(CC(C)C)CC2CCC2)cc1 [Example 99, 4′-((cyclobutylmethyl) (isobutyl)amino)-5-fluoro-3′-(3-p-tolylureido)biphenyl-2-carboxylic acid]"
8,80,Cc1ccc(NC(=O)Nc2cc(-c3ccccc3-c3nnn[nH]3)ccc2N(Cc2ccc(Cl)cc2)C2CCCCC2)cc1 [Example 468]
9,50,"Cc1ccc(NC(=O)Nc2cc(-c3ccccc3-c3nnn[nH]3)ccc2N(C)CC(C)C)cc1 [Example 179, 1-(4-(isobutyl(methyl)amino)-2′-(1H-tetrazol-5-yl)-[1,1′-biphenyl]-3-yl)-3-(p-tolyl)urea]"
10,40,"Cc1ccc(NC(=O)Nc2cc(-c3ccccc3C(=O)O)ccc2N(CC(C)C)C(C)C)cc1 [Example 148, 4′-(isobutyl(isopropyl)amino)-3′-(3-p-tolylureido)biphenyl-2-carboxylic acid]"
11,20,"Cc1ccc(NC(=O)Nc2cc(-c3ccccc3-c3nnn[nH]3)ccc2N(CC(C)C)CC2CC2)cc1 [Example 92, 1-(4-((cyclopropylmethyl) (isobutyl)amino)-2′-(1H-tetrazol-5-yl)biphenyl-3-yl)-3-p-tolylurea]"
12,10,"CC(C)CN(c1ccc(-c2ccccc2C(=O)O)cc1NC(=O)Nc1ccccc1F)C1CCCC1 [Example 173, 4′-(cyclopentyl(isobutyl)amino)-3′-(3-(2-fluorophenyl)ureido) biphenyl-2-carboxylic acid]"
13,9.3,C#CCOc1ccc(NC(=O)Nc2cc(-c3ccccc3-c3nnn[nH]3)ccc2N(CC(C)C)CC(C)C)cc1 [Example 244]
14,4.47,"Cc1ccc(NC(=O)Nc2cc(-c3ccccc3-c3nnn[nH]3)ccc2N(CC(C)C)CC(C)C)cc1F [Example 287, 1-(4-(diisobutylamino)-2′-(1H-tetrazol-5-yl)-[1,1′-biphenyl]-3-yl)-3-(3-fluoro-4-methylphenyl)urea]"
